Assay results published in patent publication US20210169892A1, “MODULATORS OF THE INTEGRATED STRESS PATHWAY” (Calico Life Sciences LLC, priority 2017, published 2021).

Tested on: HEK293T cells carrying the ATF4 luciferase reporter
Assay: ATF4-Luc assay (in vitro model of vanishing white matter disease)
Format: cell-based
Conditions: Homo sapiens, HEK-293T; HEK293T cells with ATF4 luciferase reporter, 1 μg/mL tunicamycin, 7 hours, One Glo luminescence
Procedure: In order to test exemplary compounds of the invention in a cellular context, a stable VWMD cell line was first constructed. The ATF4 reporter was prepared by fusing the human full-length ATF4 5′-UTR (NCBI Accession No. BC022088.2) in front of the firefly luciferase (FLuc) coding sequence lacking the initiator methionine as described in Sidrauski et al (eLife 2013). The construct was used to produce recombinant retroviruses using standard methods and the resulting viral supernatant was used to transduce HEK293T cells, which were then subsequently selected with puromycin to generate a stable cell line.
HEK293T cells carrying the ATF4 luciferase reporter were plated on polylysine coated 384-well plates (Greiner Bio-one) at 30,000 cells per well. Cells were treated the next day with 1 μg/mL tunicamycin and 200 nM of a compound of Formula (I) for 7 hours. Luminescence was measured using One Glo (Promega) as specified by the manufacturer. Cells were maintained in DMEM with L-glutamine supplemented with 10% heat-inactivated FBS (Gibco) and Antibiotic-Antimycotic solution (Gibco).
Table 2 below summarizes the EC50 data obtained using the ATF4-Luc assay for exemplary compounds of the invention.

Question: How did the EC50 turn out when O=C(COc1ccc(Cl)c(F)c1)NC12CC(NC(=O)C3CN(C(=O)C4CCOC4)c4cc(Cl)ccc4O3)(C1)C2 (centres unmarked) [Compound 152, 6-chloro-N-{3-[2-(4-chloro-3-fluorophenoxy)acetamido]bicyclo[1.1.1]pentan-1-yl}-4-(oxolane-3-carbonyl)-3,4-dihydro-2H-1,4-benzoxazine-2-carboxamide] was run?
Answer: 0.25 to 0.5 µM

Question: For Cc1oncc1C(=O)N1CC(C(=O)NC23CC(NC(=O)COc4ccc(Cl)c(F)c4)(C2)C3)Oc2ccc(Cl)cc21 (centres unmarked) [Compound 153, 6-chloro-N-{3-[2-(4-chloro-3-fluorophenoxy)acetamido]bicyclo[1.1.1]pentan-1-yl}-4-(5-methyl-1,2-oxazole-4-carbonyl)-3,4-dihydro-2H-1,4-benzoxazine-2-carboxamide], which EC50 is on record?
Answer: 0.01 to 0.05 µM

Question: How did the EC50 turn out when O=C(COc1ccc(Cl)c(F)c1)NC12CC(NC(=O)C3CN(C(=O)c4ccno4)c4cc(Cl)ccc4O3)(C1)C2 (centres unmarked) [Compound 154, 6-chloro-N-{3-[2-(4-chloro-3-fluorophenoxy)acetamido]bicyclo[1.1.1]pentan-1-yl}-4-(1,2-oxazole-5-carbonyl)-3,4-dihydro-2H-1,4-benzoxazine-2-carboxamide] was run?
Answer: < 0.01 µM

Question: For O=C(O)CC1c2ccccc2CCN1C(=O)NC12CC(NC(=O)COc3ccc(Cl)c(F)c3)(C1)C2 (centres unmarked) [Compound 155, [2-({3-[2-(4-chloro-3-fluorophenoxy)acetamido]bicyclo[1.1.1]pentan-1-yl}carbamoyl)-1,2,3,4-tetrahydroisoquinolin-1-yl]acetic Acid], which EC50 is on record?
Answer: > 2 µM

Question: With COCCOCC(=O)N1CC(C(=O)NC23CC(NC(=O)COc4ccc(Cl)c(F)c4)(C2)C3)Oc2ccc(Cl)cc21 (centres unmarked) [Compound 156, 6-chloro-N-{3-[2-(4-chloro-3-fluorophenoxy)acetamido]bicyclo[1.1.1]pentan-1-yl}-4-[(2-methoxyethoxy)acetyl]-3,4-dihydro-2H-1,4-benzoxazine-2-carboxamide] as the molecule, how does the EC50 read?
Answer: 0.01 to 0.05 µM

Question: With CC(=O)N1CC(C(=O)NC23CC(NC(=O)COc4ccc(Cl)c(F)c4)(C2)C3)Oc2ccc(Cl)cc21 (centres unmarked) [Compound 157, 4-acetyl-6-chloro-N-{3-[2-(4-chloro-3-fluorophenoxy)acetamido]bicyclo[1.1.1]pentan-1-yl}-3,4-dihydro-2H-1,4-benzoxazine-2-carboxamide] as the molecule, how does the EC50 read?
Answer: 0.01 to 0.05 µM

Question: For COCC(=O)N1CC(C(=O)NC23CC(NC(=O)COc4ccc(Cl)c(F)c4)(C2)C3)Oc2ccc(Cl)cc21 (centres unmarked) [Compound 158, 6-chloro-N-{3-[2-(4-chloro-3-fluorophenoxy)acetamido]bicyclo[1.1.1]pentan-1-yl}-4-(methoxyacetyl)-3,4-dihydro-2H-1,4-benzoxazine-2-carboxamide], which EC50 is on record?
Answer: 0.01 to 0.05 µM

Question: How did the EC50 turn out when O=C(COc1ccc(Cl)c(F)c1)NC12CC(NC(=O)C3CN(C(=O)C(F)(F)C(F)(F)C(F)(F)F)c4cc(Cl)ccc4O3)(C1)C2 (centres unmarked) [Compound 159, 6-chloro-N-{3-[2-(4-chloro-3-fluorophenoxy)acetamido]bicyclo[1.1.1]pentan-1-yl}-4-(2,2,3,3,4,4,4-heptafluorobutanoyl)-3,4-dihydro-2H-1,4-benzoxazine-2-carboxamide] was run?
Answer: < 0.01 µM

Question: With O=C(COc1ccc(Cl)c(F)c1)NC12CC(NC(=O)C3CN(C(=O)c4cccc(C(F)(F)F)c4)c4cc(Cl)ccc4O3)(C1)C2 (centres unmarked) [Compound 160, 6-chloro-N-{3-[2-(4-chloro-3-fluorophenoxy)acetamido]bicyclo[1.1.1]pentan-1-yl}-4-[3-(trifluoromethyl)benzoyl]-3,4-dihydro-2H-1,4-benzoxazine-2-carboxamide] as the molecule, how does the EC50 read?
Answer: > 2 µM

Question: How did the EC50 turn out when O=C(COc1ccc(Cl)c(F)c1)NC12CC(NC(=O)C3CN(C(=O)C(F)(F)C(F)F)c4cc(Cl)ccc4O3)(C1)C2 (centres unmarked) [Compound 161, 6-chloro-N-{3-[2-(4-chloro-3-fluorophenoxy)acetamido]bicyclo[1.1.1]pentan-1-yl}-4-(2,2,3,3-tetrafluoropropanoyl)-3,4-dihydro-2H-1,4-benzoxazine-2-carboxamide] was run?
Answer: < 0.01 µM

Question: Which EC50 does the source give for CSCCC(=O)N1CC(C(=O)NC23CC(NC(=O)COc4ccc(Cl)c(F)c4)(C2)C3)Oc2ccc(Cl)cc21 (centres unmarked) [Compound 162, 6-chloro-N-{3-[2-(4-chloro-3-fluorophenoxy)acetamido]bicyclo[1.1.1]pentan-1-yl}-4-[3-(methylsulfanyl)propanoyl]-3,4-dihydro-2H-1,4-benzoxazine-2-carboxamide] here?
Answer: 0.05 to 0.25 µM

Question: How did the EC50 turn out when Cc1cc(S(=O)(=O)N2CC(C(=O)NC34CC(NC(=O)COc5ccc(Cl)c(F)c5)(C3)C4)Oc3ccc(Cl)cc32)c(C(F)(F)F)o1 (centres unmarked) [Compound 163, 6-chloro-N-{3-[2-(4-chloro-3-fluorophenoxy)acetamido]bicyclo[1.1.1]pentan-1-yl}-4-[5-methyl-2-(trifluoromethyl)furan-3-sulfonyl]-3,4-dihydro-2H-1,4-benzoxazine-2-carboxamide] was run?
Answer: > 2 µM

Question: Which EC50 does the source give for COc1ccc(S(=O)(=O)N2CC(C(=O)NC34CC(NC(=O)COc5ccc(Cl)c(F)c5)(C3)C4)Oc3ccc(Cl)cc32)cc1 (centres unmarked) [Compound 164, 6-chloro-N-{3-[2-(4-chloro-3-fluorophenoxy)acetamido]bicyclo[1.1.1]pentan-1-yl}-4-(4-methoxybenzene-1-sulfonyl)-3,4-dihydro-2H-1,4-benzoxazine-2-carboxamide] here?
Answer: > 2 µM

Question: How did the EC50 turn out when Cn1cnc(S(=O)(=O)N2CC(C(=O)NC34CC(NC(=O)COc5ccc(Cl)c(F)c5)(C3)C4)Oc3ccc(Cl)cc32)c1 (centres unmarked) [Compound 165, 6-chloro-N-{3-[2-(4-chloro-3-fluorophenoxy)acetamido]bicyclo[1.1.1]pentan-1-yl}-4-(1-methyl-1H-imidazole-4-sulfonyl)-3,4-dihydro-2H-1,4-benzoxazine-2-carboxamide] was run?
Answer: 0.01 to 0.05 µM

Question: How did the EC50 turn out when O=C(COc1ccc(Cl)c(F)c1)NC12CC(NC(=O)C3CN(S(=O)(=O)c4ccc(F)cc4)c4cc(Cl)ccc4O3)(C1)C2 (centres unmarked) [Compound 166, 6-chloro-N-{3-[2-(4-chloro-3-fluorophenoxy)acetamido]bicyclo[1.1.1]pentan-1-yl}-4-(4-fluorobenzene-1-sulfonyl)-3,4-dihydro-2H-1,4-benzoxazine-2-carboxamide] was run?
Answer: 0.5 to 2 µM

Question: With O=C(COc1ccc(Cl)c(F)c1)NC12CC(NC(=O)C3CN(C(=O)CCCC(F)(F)F)c4cc(Cl)ccc4O3)(C1)C2 (centres unmarked) [Compound 167, 6-chloro-N-{3-[2-(4-chloro-3-fluorophenoxy)acetamido]bicyclo[1.1.1]pentan-1-yl}-4-(5,5,5-trifluoropentanoyl)-3,4-dihydro-2H-1,4-benzoxazine-2-carboxamide] as the molecule, how does the EC50 read?
Answer: 0.25 to 0.5 µM

Question: CS(=O)(=O)N1CC(C(=O)NC23CC(NC(=O)COc4ccc(Cl)c(F)c4)(C2)C3)Oc2ccc(Cl)cc21 (centres unmarked) [Compound 168, 6-chloro-N-{3-[2-(4-chloro-3-fluorophenoxy)acetamido]bicyclo[1.1.1]pentan-1-yl}-4-(methanesulfonyl)-3,4-dihydro-2H-1,4-benzoxazine-2-carboxamide] was tested. Which EC50 did it give?
Answer: 0.05 to 0.25 µM

Question: Which EC50 does the source give for O=C(COc1ccc(Cl)c(F)c1)NC12CC(NC(=O)C3CN(C(=O)c4ccncc4)c4cc(Cl)ccc4O3)(C1)C2 (centres unmarked) [Compound 169, 6-chloro-N-{3-[2-(4-chloro-3-fluorophenoxy)acetamido]bicyclo[1.1.1]pentan-1-yl}-4-(pyridine-4-carbonyl)-3,4-dihydro-2H-1,4-benzoxazine-2-carboxamide] here?
Answer: 0.25 to 0.5 µM

Question: For O=C(O)CCN1CC(C(=O)NC23CC(NC(=O)COc4ccc(Cl)c(F)c4)(C2)C3)Oc2ccc(Cl)cc21 (centres unmarked) [Compound 170, 3-[6-chloro-2-({3-[2-(4-chloro-3-fluorophenoxy)acetamido]bicyclo[1.1.1]pentan-1-yl}carbamoyl)-2,3-dihydro-4H-1,4-benzoxazin-4-yl]propanoic acid], which EC50 is on record?
Answer: 0.25 to 0.5 µM

Question: For CSN1CC(C(=O)NC23CC(NC(=O)COc4ccc(Cl)c(F)c4)(C2)C3)Oc2ccc(Cl)cc21 (centres unmarked) [Compound 172, 6-chloro-N-{3-[2-(4-chloro-3-fluorophenoxy)acetamido]bicyclo[1.1.1]pentan-1-yl}-4-(methylsulfanyl)-3,4-dihydro-2H-1,4-benzoxazine-2-carboxamide], which EC50 is on record?
Answer: < 0.01 µM

Question: How did the EC50 turn out when Cc1nn(C)cc1S(=O)(=O)N1CC(C(=O)NC23CC(NC(=O)COc4ccc(Cl)c(F)c4)(C2)C3)Oc2ccc(Cl)cc21 (centres unmarked) [Compound 173, 6-chloro-N-{3-[2-(4-chloro-3-fluorophenoxy)acetamido]bicyclo[1.1.1]pentan-1-yl}-4-(1,3-dimethyl-1H-pyrazole-4-sulfonyl)-3,4-dihydro-2H-1,4-benzoxazine-2-carboxamide] was run?
Answer: 0.5 to 2 µM

Question: Which EC50 does the source give for NS(=O)(=O)c1ccc(S(=O)(=O)N2CC(C(=O)NC34CC(NC(=O)COc5ccc(Cl)c(F)c5)(C3)C4)Oc3ccc(Cl)cc32)cc1 (centres unmarked) [Compound 174, 6-chloro-N-{3-[2-(4-chloro-3-fluorophenoxy)acetamido]bicyclo[1.1.1]pentan-1-yl}-4-(4-sulfamoylbenzene-1-sulfonyl)-3,4-dihydro-2H-1,4-benzoxazine-2-carboxamide] here?
Answer: 0.05 to 0.25 µM

Question: How did the EC50 turn out when O=C(COc1ccc(Cl)c(F)c1)NC12CC(NC(=O)C3CN(C(=O)[C@@H]4C[C@@H]4F)c4cc(Cl)ccc4O3)(C1)C2 (stereo partly drawn) [Compound 175, 6-chloro-N-{3-[2-(4-chloro-3-fluorophenoxy)acetamido]bicyclo[1.1.1]pentan-1-yl}-4-[(1S,2S)-2-fluorocyclopropane-1-carbonyl]-3,4-dihydro-2H-1,4-benzoxazine-2-carboxamide] was run?
Answer: 0.25 to 0.5 µM
